{
  "source": "ChEMBL document CHEMBL4834434",
  "about": "“Discovery of Novel and Potent N-Methyl-d-aspartate Receptor Positive Allosteric Modulators with Antidepressant-like Activity in Rodent Models” (J Med Chem, 2021)",
  "key": {"[1]": {"assay": "Cytotoxicity against mouse L929 cells assessed as cell growth inhibition at 60 uM measured after 48 hrs by CCK8 assay relative to control", "assay_type": "cell-based"}, "hERG (KCNH2) [2]": {"target": "T1, hERG (KCNH2) (Homo sapiens, UniProt Q12809)", "T1 sequence (Q12809 whole entry)": "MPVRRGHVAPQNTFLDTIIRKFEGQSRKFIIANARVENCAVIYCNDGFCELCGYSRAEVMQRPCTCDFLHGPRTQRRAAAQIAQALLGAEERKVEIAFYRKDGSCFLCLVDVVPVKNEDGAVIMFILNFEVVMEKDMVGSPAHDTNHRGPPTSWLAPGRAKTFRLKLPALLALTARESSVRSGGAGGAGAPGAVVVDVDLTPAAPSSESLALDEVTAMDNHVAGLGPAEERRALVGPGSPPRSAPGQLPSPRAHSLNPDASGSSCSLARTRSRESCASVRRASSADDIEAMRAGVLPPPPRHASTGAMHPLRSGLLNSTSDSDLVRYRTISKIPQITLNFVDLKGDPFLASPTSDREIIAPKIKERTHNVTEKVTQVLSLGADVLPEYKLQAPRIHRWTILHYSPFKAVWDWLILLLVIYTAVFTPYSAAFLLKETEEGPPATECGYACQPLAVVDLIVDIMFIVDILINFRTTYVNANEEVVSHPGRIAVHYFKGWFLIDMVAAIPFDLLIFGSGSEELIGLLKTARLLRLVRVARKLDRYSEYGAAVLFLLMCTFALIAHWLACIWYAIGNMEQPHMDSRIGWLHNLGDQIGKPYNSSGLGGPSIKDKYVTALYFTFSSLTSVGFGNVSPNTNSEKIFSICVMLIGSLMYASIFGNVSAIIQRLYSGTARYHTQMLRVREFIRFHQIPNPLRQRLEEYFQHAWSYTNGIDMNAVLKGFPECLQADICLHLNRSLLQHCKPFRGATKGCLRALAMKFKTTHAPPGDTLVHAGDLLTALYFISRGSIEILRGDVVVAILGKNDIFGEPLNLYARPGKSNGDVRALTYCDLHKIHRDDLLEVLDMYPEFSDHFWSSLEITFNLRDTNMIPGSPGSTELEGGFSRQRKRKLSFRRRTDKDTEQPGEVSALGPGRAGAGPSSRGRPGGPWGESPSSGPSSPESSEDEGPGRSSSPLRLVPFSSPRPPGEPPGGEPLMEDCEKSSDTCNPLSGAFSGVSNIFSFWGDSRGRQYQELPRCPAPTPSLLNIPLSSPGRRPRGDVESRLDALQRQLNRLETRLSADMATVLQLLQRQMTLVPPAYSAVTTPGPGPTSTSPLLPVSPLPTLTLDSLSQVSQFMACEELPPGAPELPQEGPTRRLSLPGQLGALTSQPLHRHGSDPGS", "assay": "Inhibition of human ERG expressed in CHO cells at 100 uM with holding potential at -80 to -60 mV for 500s followed by raise in potential at +30 mV for 2 sec and subsequent repolarization to -60 mV for 2 sec by whole-cell patch clamp method relative to control", "assay_type": "cell-based", "conditions": "CHO cells expressing human ERG"}, "[3]": {"assay": "AUC (0 to t) in ICR mouse at 3 mg/kg, iv measured up to 24 hrs by HPLC-MS/MS analysis", "assay_type": "ADME, organism-based", "design": "route intravenous, dose 3 mg/kg, time <=24", "conditions": "in vivo"}, "[4]": {"target": "Glutamate NMDA receptor (Mus musculus) (UniProt P35436+Q91ZU9+Q03391+P35438+Q01097+Q01098+A2AIR5)", "assay": "Positive allosteric modulation of C57BL/6 mouse NMDA receptor assessed as fold change in compound potentiated NMDA-induced current relative to NMDA current alone in presence of saturating glutamate by patch-clamp method", "assay_type": "tissue-based", "conditions": "Brain, filed as positive allosteric modulator"}, "[5]": {"assay": "Clearance in Sprague-Dawley rat at 3 mg/kg, iv measured up to 1280 mins by HPLC-MS/MS analysis", "assay_type": "ADME, organism-based", "conditions": "in vivo"}, "hERG (KCNH2) [6]": {"target": "T1, hERG (KCNH2)", "assay": "Inhibition of human ERG expressed in CHO cells at 30 uM with holding potential at -80 to -60 mV for 500s followed by raise in potential at +30 mV for 2 sec and subsequent repolarization to -60 mV for 2 sec by whole-cell patch clamp method relative to control", "assay_type": "cell-based", "conditions": "CHO cells expressing human ERG"}, "[7]": {"assay": "Oral bioavailability in Sprague-Dawley rat at 10 mg/kg measured up to 1280 mins by HPLC-MS/MS analysis", "assay_type": "ADME, organism-based", "conditions": "in vivo"}, "[8]": {"target": "Sodium-dependent dopamine transporter (Rattus norvegicus) (UniProt P23977)", "sequence (P23977 whole entry)": "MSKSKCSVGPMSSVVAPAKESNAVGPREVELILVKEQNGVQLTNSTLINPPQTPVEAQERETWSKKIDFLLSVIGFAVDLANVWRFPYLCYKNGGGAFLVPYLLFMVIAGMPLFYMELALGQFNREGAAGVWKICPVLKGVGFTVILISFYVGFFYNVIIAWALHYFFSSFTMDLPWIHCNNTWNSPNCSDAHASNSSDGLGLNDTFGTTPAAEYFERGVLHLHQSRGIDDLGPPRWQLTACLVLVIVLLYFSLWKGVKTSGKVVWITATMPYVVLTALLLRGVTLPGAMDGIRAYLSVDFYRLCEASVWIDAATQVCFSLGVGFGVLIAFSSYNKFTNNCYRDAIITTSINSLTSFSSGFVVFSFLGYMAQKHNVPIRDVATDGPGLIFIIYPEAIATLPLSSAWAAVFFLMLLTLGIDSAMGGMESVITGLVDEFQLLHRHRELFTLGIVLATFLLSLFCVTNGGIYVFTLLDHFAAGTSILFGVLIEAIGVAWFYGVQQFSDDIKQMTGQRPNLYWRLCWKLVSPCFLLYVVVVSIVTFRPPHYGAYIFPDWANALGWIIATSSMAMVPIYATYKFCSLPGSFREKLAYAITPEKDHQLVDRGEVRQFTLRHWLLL", "assay": "Displacement of [3H]-WIN35428 from rat striatum DAT", "assay_type": "tissue-based"}, "[9]": {"assay": "[…] in ICR mouse assessed as decrease in body weight at 30 mg/kg, po administered for 28 days", "assay_type": "organism-based", "conditions": "in vivo, 672 h, time 28 day"}, "[10]": {"assay": "Drug concentration in ICR mouse plasma at 10 mg/kg, po measured at 0.5 hrs by LC-MS/MS analysis", "assay_type": "ADME, organism-based"}, "[11]": {"assay": "Half life in Sprague-Dawley rat at 3 mg/kg, iv measured up to 1280 mins by HPLC-MS/MS analysis", "assay_type": "ADME, organism-based", "conditions": "in vivo"}, "[12]": {"assay": "MRT in ICR mouse at 10 mg/kg, po measured up to 24 hrs by HPLC-MS/MS analysis", "assay_type": "ADME, organism-based", "conditions": "in vivo"}, "[13]": {"target": "5-hydroxytryptamine receptor 1B (Homo sapiens) (UniProt P28222)", "sequence (P28222 whole entry)": "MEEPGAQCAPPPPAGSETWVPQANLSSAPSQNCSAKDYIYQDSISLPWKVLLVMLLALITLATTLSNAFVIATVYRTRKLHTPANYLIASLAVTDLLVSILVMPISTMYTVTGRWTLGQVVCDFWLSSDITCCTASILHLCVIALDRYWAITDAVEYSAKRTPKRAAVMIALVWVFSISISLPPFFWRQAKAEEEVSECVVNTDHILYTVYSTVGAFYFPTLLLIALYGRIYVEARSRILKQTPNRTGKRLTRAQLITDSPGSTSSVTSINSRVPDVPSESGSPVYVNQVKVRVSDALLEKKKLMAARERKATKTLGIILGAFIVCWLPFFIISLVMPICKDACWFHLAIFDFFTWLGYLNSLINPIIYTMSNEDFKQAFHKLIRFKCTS", "assay": "Displacement of [3H]-GR125743 from 5HT1BR (unknown origin) expressed in CHO cells", "assay_type": "cell-based"}, "[14]": {"assay": "Ratio of drug concentration in brain to plasma in Sprague-Dawley rat at 3 mg/kg, iv measured at 80 mins by LC-MS/MS analysis", "assay_type": "ADME, organism-based", "conditions": "read-out: BPR"}, "[15]": {"target": "D(3) dopamine receptor (Homo sapiens) (UniProt P35462)", "sequence (P35462 whole entry)": "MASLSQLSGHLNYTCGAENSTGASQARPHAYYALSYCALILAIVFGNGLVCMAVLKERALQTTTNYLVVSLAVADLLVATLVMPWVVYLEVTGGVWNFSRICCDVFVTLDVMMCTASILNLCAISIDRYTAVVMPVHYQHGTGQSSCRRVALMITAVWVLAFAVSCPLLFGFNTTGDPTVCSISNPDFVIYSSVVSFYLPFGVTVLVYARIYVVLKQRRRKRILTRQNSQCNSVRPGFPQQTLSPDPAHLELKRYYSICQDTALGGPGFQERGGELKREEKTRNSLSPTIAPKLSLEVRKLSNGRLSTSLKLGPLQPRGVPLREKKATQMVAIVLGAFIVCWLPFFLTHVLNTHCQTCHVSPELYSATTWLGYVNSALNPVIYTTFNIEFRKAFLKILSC", "assay": "Displacement of [3H]-methylspiperone from human dopamine D3 receptor expressed in CHO cells incubated for 60 mins by liquid scintillation counting analysis", "assay_type": "cell-based"}, "[16]": {"target": "Sodium-dependent noradrenaline transporter (Homo sapiens) (UniProt P23975)", "sequence (P23975 whole entry)": "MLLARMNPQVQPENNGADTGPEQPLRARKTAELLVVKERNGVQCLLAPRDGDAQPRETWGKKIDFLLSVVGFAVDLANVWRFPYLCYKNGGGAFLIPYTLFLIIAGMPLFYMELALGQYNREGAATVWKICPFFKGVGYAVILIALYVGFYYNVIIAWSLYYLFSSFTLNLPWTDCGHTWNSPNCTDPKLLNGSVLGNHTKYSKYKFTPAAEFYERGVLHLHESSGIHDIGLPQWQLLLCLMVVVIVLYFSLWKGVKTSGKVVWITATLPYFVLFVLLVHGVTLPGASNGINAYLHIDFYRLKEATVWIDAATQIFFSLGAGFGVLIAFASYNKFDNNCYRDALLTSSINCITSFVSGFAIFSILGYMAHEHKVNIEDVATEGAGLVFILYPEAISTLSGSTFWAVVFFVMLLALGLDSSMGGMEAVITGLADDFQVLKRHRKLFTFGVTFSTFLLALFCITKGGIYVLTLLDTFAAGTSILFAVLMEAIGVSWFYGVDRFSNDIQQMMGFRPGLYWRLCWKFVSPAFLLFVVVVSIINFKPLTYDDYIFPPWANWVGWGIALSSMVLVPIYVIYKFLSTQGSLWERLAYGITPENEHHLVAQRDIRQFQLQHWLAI", "assay": "Displacement of [3H]-Nisoxetine from NET (unknown origin)"}, "[17]": {"assay": "Tmax in ICR mouse at 10 mg/kg, po measured up to 24 hrs by HPLC-MS/MS analysis", "assay_type": "ADME, organism-based", "conditions": "in vivo"}, "[18]": {"assay": "Drug concentration in ICR mouse brain at 3 mg/kg, iv measured at 2 hrs", "assay_type": "ADME, organism-based", "conditions": "read-out: Ct"}, "[19]": {"assay": "Half life in Sprague-Dawley rat at 10 mg/kg, po measured up to 1280 mins by HPLC-MS/MS analysis", "assay_type": "ADME, organism-based", "conditions": "in vivo"}, "[20]": {"assay": "Ratio of drug concentration in brain to plasma in ICR mouse at 3 mg/kg, iv measured at 0.5 hrs by LC-MS/MS analysis", "assay_type": "ADME, organism-based", "conditions": "read-out: BPR"}, "[21]": {"assay": "Half life in ICR mouse at 10 mg/kg, po measured up to 24 hrs by HPLC-MS/MS analysis", "assay_type": "ADME, organism-based", "conditions": "in vivo"}, "Glutamate NMDA receptor": {"target": "Glutamate NMDA receptor", "assay": "Positive allosteric modulation of C57BL/6 mouse NMDA receptor assessed as potentiation of NMDA-induced current in presence of saturating glutamate by patch-clamp method", "assay_type": "tissue-based, Brain"}, "[22]": {"assay": "Effect on locomotor activity in ICR mouse assessed as hyperlocomotion at 10 mg/kg, ip measured after 90 mins", "assay_type": "ADME, organism-based", "conditions": "in vivo, 1.5 h"}, "[23]": {"assay": "Effect on locomotor activity in ICR mouse assessed as hypolocomotion at 10 mg/kg, ip measured after 90 mins", "assay_type": "ADME, organism-based", "conditions": "in vivo, 1.5 h"}, "[24]": {"assay": "Clearance in ICR mouse at 3 mg/kg, iv measured up to 24 hrs by HPLC-MS/MS analysis", "assay_type": "ADME, organism-based", "conditions": "in vivo"}, "[25]": {"target": "D(2) dopamine receptor (Homo sapiens) (UniProt P14416)", "sequence (P14416 whole entry)": "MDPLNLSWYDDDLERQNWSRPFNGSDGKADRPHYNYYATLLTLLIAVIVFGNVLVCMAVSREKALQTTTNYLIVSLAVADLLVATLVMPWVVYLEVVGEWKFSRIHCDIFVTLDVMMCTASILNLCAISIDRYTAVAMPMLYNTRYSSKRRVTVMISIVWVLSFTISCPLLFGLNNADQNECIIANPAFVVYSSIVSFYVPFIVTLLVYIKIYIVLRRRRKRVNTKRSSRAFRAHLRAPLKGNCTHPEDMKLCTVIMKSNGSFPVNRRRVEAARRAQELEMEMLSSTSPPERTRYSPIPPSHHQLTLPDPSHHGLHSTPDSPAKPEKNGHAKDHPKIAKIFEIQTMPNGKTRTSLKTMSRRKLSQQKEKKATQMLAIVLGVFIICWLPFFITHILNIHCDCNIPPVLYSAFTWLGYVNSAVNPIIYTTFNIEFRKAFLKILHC", "assay": "Displacement of [3H]-methylspiperone from human dopamine D2 receptor expressed in CHO cells incubated for 30 mins by liquid scintillation counting analysis", "assay_type": "cell-based"}, "[26]": {"assay": "Ratio of drug concentration in brain to plasma in ICR mouse at 10 mg/kg, po measured at 0.5 hrs by LC-MS/MS analysis", "assay_type": "ADME, organism-based", "conditions": "read-out: BPR"}, "[27]": {"assay": "Drug concentration in ICR mouse brain at 10 mg/kg, po measured at 2 hrs by LC-MS/MS analysis", "assay_type": "ADME, organism-based", "conditions": "read-out: Ct"}, "[28]": {"assay": "Drug concentration in ICR mouse brain at 3 mg/kg, iv measured at 0.5 hrs by LC-MS/MS analysis", "assay_type": "ADME, organism-based", "conditions": "read-out: Ct"}, "[29]": {"assay": "MRT in ICR mouse at 3 mg/kg, iv measured up to 24 hrs by HPLC-MS/MS analysis", "assay_type": "ADME, organism-based", "conditions": "in vivo"}, "[30]": {"assay": "Drug concentration in Sprague-Dawley rat plasma at 3 mg/kg, iv measured at 20 mins by LC-MS/MS analysis", "assay_type": "ADME, organism-based"}, "[31]": {"target": "5-hydroxytryptamine receptor 2A (Homo sapiens) (UniProt P28223)", "sequence (P28223 whole entry)": "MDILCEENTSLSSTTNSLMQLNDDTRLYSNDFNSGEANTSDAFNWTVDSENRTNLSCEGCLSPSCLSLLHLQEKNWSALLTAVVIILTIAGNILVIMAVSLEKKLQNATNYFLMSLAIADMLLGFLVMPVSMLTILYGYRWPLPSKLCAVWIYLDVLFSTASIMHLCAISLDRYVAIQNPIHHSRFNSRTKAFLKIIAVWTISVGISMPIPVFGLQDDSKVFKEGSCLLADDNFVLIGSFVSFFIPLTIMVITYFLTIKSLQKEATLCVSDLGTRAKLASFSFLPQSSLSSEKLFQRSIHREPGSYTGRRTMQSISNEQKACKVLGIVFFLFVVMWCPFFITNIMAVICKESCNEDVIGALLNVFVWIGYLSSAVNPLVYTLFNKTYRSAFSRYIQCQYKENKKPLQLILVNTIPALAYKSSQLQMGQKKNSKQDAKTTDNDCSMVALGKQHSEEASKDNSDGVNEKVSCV", "assay": "Displacement of [3H]-ketanserin from human 5HT2AR expressed in CHO cells incubated for 30 mins by liquid scintillation counting analysis", "assay_type": "cell-based"}},
  "note": "pEC50: −log10 of the molar value. The source made the active and inactive calls. The calls are words filed in the database; no cut-off is given here.",
  "data": [
    {"smiles": "Cc1cc(C)n(Cc2ccc(C(=O)Nc3ccc(Cl)c(Cl)c3)s2)n1", "values": [
      {"measurement": "inhibition at 48 h, 60 µM", "setting": "[1]", "result": 0.5, "unit": "%"},
      {"measurement": "inhibition at 2 s, 100 µM", "setting": "hERG (KCNH2) [2]", "result": 45, "unit": "%"},
      {"measurement": "AUC(0-t) at 24 h", "setting": "[3]", "result": 1450, "unit": "ng·h/mL"},
      {"measurement": "fold change (FC)", "setting": "[4]", "result": 14.3},
      {"measurement": "CL", "setting": "[5]", "result": 27.8, "unit": "mL/min/kg"},
      {"measurement": "inhibition at 2 s, 30 µM", "setting": "hERG (KCNH2) [6]", "result": 35.4, "unit": "%"},
      {"measurement": "bioavailability", "setting": "[7]", "result": 8.32, "unit": "%"},
      {"measurement": "inhibition", "setting": "[8]", "result": "inactive"},
      {"measurement": "Activity", "setting": "[9]", "result": "Toxic"},
      {"measurement": "concentration at 0.5 h", "setting": "[10]", "result": 760, "unit": "ng/mL"},
      {"measurement": "t1/2", "setting": "[11]", "result": 1.7, "unit": "h"},
      {"measurement": "MRT", "setting": "[12]", "result": 4.2, "unit": "h"},
      {"measurement": "inhibition", "setting": "[13]", "result": "inactive"},
      {"measurement": "Kp at 1.333 h", "setting": "[14]", "result": 1.5},
      {"measurement": "inhibition", "setting": "[15]", "result": "inactive"},
      {"measurement": "inhibition", "setting": "[16]", "result": "inactive"},
      {"measurement": "Tmax", "setting": "[17]", "result": 0.5, "unit": "h"},
      {"measurement": "concentration at 2 h", "setting": "[18]", "result": 85.5, "unit": "ng/mL"},
      {"measurement": "half-life", "setting": "[19]", "result": 1.13, "unit": "h"},
      {"measurement": "Kp at 0.5 h", "setting": "[20]", "result": 0.41},
      {"measurement": "half-life", "setting": "[21]", "result": 2.9, "unit": "h"},
      {"measurement": "pEC50", "setting": "Glutamate NMDA receptor", "result": 5.62},
      {"measurement": "Activity", "setting": "[22]", "result": "Non-Toxic"},
      {"measurement": "Activity", "setting": "[23]", "result": "Non-Toxic"},
      {"measurement": "clearance", "setting": "[24]", "result": 33.3, "unit": "mL/min/kg"},
      {"measurement": "inhibition", "setting": "[25]", "result": "inactive"},
      {"measurement": "Kp at 0.5 h", "setting": "[26]", "result": 0.37},
      {"measurement": "concentration at 2 h", "setting": "[27]", "result": 174, "unit": "ng/mL"},
      {"measurement": "concentration at 0.5 h", "setting": "[28]", "result": 160, "unit": "ng/mL"},
      {"measurement": "MRT", "setting": "[29]", "result": 4, "unit": "h"},
      {"measurement": "concentration at 20 min", "setting": "[30]", "result": 1490, "unit": "ng/mL"},
      {"measurement": "inhibition", "setting": "[31]", "result": "inactive"}
    ]}
  ]
}
